Laboratory results published in ChEMBL document CHEMBL3745651, “Flat SAR of P3-methylsulphonamide based small molecule legumain inhibitors” (Bioorg Med Chem Lett, 2016).
In brackets after ≈: the same amount, converted by molar mass.

Legend:
[1] = target: T1, Legumain (Homo sapiens, UniProt Q99538); assay: Inhibition of recombinant human legumain using Z-Ala-Ala-Asn-MCA as substrate preincubated with protein followed by substrate addition measured every 2 mins for 60 mins by microplate reader analysis
T1 sequence (Q99538 whole entry): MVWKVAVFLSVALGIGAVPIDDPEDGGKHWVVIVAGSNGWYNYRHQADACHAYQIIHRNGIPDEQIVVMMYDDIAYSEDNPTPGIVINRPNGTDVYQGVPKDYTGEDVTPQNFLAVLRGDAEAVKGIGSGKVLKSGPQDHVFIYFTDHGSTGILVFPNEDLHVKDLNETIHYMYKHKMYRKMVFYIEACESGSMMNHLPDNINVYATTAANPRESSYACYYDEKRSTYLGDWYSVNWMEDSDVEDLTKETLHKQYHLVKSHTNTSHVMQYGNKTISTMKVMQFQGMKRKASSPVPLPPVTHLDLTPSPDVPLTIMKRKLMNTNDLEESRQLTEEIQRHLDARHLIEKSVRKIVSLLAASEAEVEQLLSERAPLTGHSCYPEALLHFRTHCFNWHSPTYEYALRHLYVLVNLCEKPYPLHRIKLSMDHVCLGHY

[2] = Intrinsic clearance in rat hepatocytes assessed per 10^6 cells at 1 uM incubated at 37 degC for 50 mins by LC-MS/MS method […]; type: ADME, cell-based, Hepatocyte; settings: read-out: CLH
[3] = Intrinsic clearance in rat liver microsomes at 1 uM incubated for 50 mins by LC-MS/MS method in presence of NADPH; type: ADME; settings: read-out: CLH
[4] = Intrinsic clearance in mouse liver microsomes at 1 uM incubated for 50 mins by LC-MS/MS method in presence of NADPH; type: ADME; settings: read-out: CLH
[5] = Kinetic solubility of compound in pH 7.4 PBS buffer after 90 mins by plate reader analysis; type: physicochemical; settings: read-out: Kinetic_solubility

Structure (SMILES)	IC50 [1] [nM]	also measured
CC(C)Oc1cccc(-c2ccc(CN([C@H](C)C(=O)N[C@H](C#N)CC(N)=O)S(C)(=O)=O)cc2)c1	5050	
C[C@H](C(=O)N[C@H](C#N)CC(N)=O)N(Cc1ccc(-c2cc(F)cc(F)c2)cc1)S(C)(=O)=O	9250	
CCC[C@@H](C(=O)N[C@H](C#N)CC(N)=O)N(Cc1ccc(-c2cccc(F)c2)cc1)S(C)(=O)=O	4380	
CCS(=O)(=O)N(Cc1ccc(-c2cccc(F)c2F)cc1)[C@@H](C)C(=O)N[C@H](C#N)CC(N)=O	1090	
CCCS(=O)(=O)N(Cc1ccc(-c2cccc(F)c2F)cc1)[C@@H](C)C(=O)N[C@H](C#N)CC(N)=O	6740	
CC[C@@H](C(=O)N[C@H](C#N)CC(N)=O)N(Cc1ccc(-c2cccc(F)c2F)cc1)S(C)(=O)=O	5850	
C[C@@H](C(=O)N[C@H](C#N)CC(N)=O)N(Cc1ccc(-c2cc(F)cc(F)c2)cc1)S(C)(=O)=O	1360	
C[C@H](C(=O)N[C@H](C#N)CC(N)=O)N(Cc1ccc(-c2ccccc2F)cc1)S(C)(=O)=O	> 10000	
CCOc1cccc(-c2ccc(CN([C@H](C)C(=O)N[C@H](C#N)CC(N)=O)S(C)(=O)=O)cc2)c1	> 10000	
C[C@H](C(=O)N[C@H](C#N)CC(N)=O)N(Cc1ccc(-c2cccc(F)c2F)cc1)S(C)(=O)=O	1460	
CC(C)CS(=O)(=O)N(Cc1ccc(-c2cccc(F)c2)cc1)[C@@H](C)C(=O)N[C@H](C#N)CC(N)=O	2270	
C[C@H](C(=O)N[C@H](C#N)CC(N)=O)N(Cc1ccc(-c2ccc(F)c(F)c2)cc1)S(C)(=O)=O	6300	
C[C@H](C(=O)N[C@H](C#N)CC(N)=O)N(Cc1ccc(-c2cccc(F)c2)cc1)S(C)(=O)=O	2260	
COc1cccc(-c2ccc(CN([C@H](C)C(=O)N[C@H](C#N)CC(N)=O)S(C)(=O)=O)cc2)c1	5850	
CCC[C@@H](C(=O)N[C@H](C#N)CC(N)=O)N(Cc1ccc(-c2cccc(F)c2F)cc1)S(C)(=O)=O	7750	

These reach a lower IC50 [1]. Values come first.

IC50 [1] [nM]	Structure (SMILES)	also measured
586	CCOc1cccc(-c2ccc(CN([C@@H](C)C(=O)N[C@H](C#N)CC(N)=O)S(C)(=O)=O)cc2)c1	
128	C[C@@H](C(=O)N[C@H](C#N)CC(N)=O)N(Cc1ccc(-c2cccc(F)c2)cc1)S(C)(=O)=O	hepatocyte CLint at 1 µM [2]: 45 µL/min/1e6 cells; microsomal CLint at 1 µM [3]: 19 µL/min/mg; microsomal CLint at 1 µM [4]: 4 µL/min/mg; solubility kinetic at 1.5 h [5]: 185 µM (≈ 82.6 µg/mL)
356	C[C@@H](C(=O)N[C@H](C#N)CC(N)=O)N(Cc1ccc(-c2ccccc2F)cc1)S(C)(=O)=O	
882	CC(C)Oc1cccc(-c2ccc(CN([C@@H](C)C(=O)N[C@H](C#N)CC(N)=O)S(C)(=O)=O)cc2)c1	
252	C[C@@H](C(=O)N[C@H](C#N)CC(N)=O)N(Cc1ccc(-c2ccc(F)c(F)c2)cc1)S(C)(=O)=O	
323	C[C@@H](C(=O)N[C@H](C#N)CC(N)=O)N(Cc1ccc(-c2cccc(F)c2F)cc1)S(C)(=O)=O	hepatocyte CLint at 1 µM [2]: 38 µL/min/1e6 cells; microsomal CLint at 1 µM [3]: 17 µL/min/mg; microsomal CLint at 1 µM [4]: 3 µL/min/mg; solubility kinetic at 1.5 h [5]: 181 µM (≈ 84.1 µg/mL)
378	COc1cccc(-c2ccc(CN([C@@H](C)C(=O)N[C@H](C#N)CC(N)=O)S(C)(=O)=O)cc2)c1	hepatocyte CLint at 1 µM [2]: 69 µL/min/1e6 cells; microsomal CLint at 1 µM [3]: 38 µL/min/mg; microsomal CLint at 1 µM [4]: 24 µL/min/mg; solubility kinetic at 1.5 h [5]: 193 µM (≈ 88.5 µg/mL)
425	CC(C(=O)N[C@H](C#N)CC(N)=O)N(Cc1ccc(-c2cccc(Cl)c2)cc1)S(C)(=O)=O (mixture of isomers)	
